Where “and” joins values, the source holds several entries; their conditions need not be identical. Equal values may be shown once. Toxic doses and inconclusive results are not listed. Cut-off read from the data, not from the text of the source: active = T/C of 150% or more; inactive = T/C below 125%.
Test system: L1210 leukemia ip in BDF1 mice, survival T/C
Assay: NCI In Vivo Anticancer Drug Screen. Data for tumor model L1210 Leukemia (intraperitoneal) in B6D2F1 (BDF1) mice
Settings: endpoint: mean survival time, higher = longer survival
How it was run: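 Transplanted-tumor mice were given test agent; controls received vehicle only. Survival readings from the two groups were divided (treated over control).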

[1] = dose: 100.0 mg/kg/injection, schedule: Q01DX001 (ip), vehicle: saline with Tween-80
[2] = dose: 200.0 mg/kg/injection, schedule: Q01DX001 (ip), vehicle: saline with Tween-80
[3] = dose: 400.0 mg/kg/injection, schedule: Q01DX001 (ip), vehicle: saline with Tween-80
[4] = dose: 100.0 mg/kg/injection, schedule: Q01DX009 (ip), vehicle: Klucel (hydroxypropylcellulose) (HPC)
[5] = dose: 100.0 mg/kg/injection, schedule: Q04DX003 (ip), vehicle: saline
[6] = dose: 200.0 mg/kg/injection, schedule: Q04DX003 (ip), vehicle: saline
[7] = dose: 400.0 mg/kg/injection, schedule: Q04DX003 (ip), vehicle: saline
[8] = dose: 100.0 mg/kg/injection, schedule: Q04DX002 (ip), vehicle: Klucel (hydroxypropylcellulose) (HPC)
[9] = dose: 200.0 mg/kg/injection, schedule: Q04DX002 (ip), vehicle: Klucel (hydroxypropylcellulose) (HPC)
[10] = dose: 400.0 mg/kg/injection, schedule: Q04DX002 (ip), vehicle: Klucel (hydroxypropylcellulose) (HPC)
[11] = dose: 100.0 mg/kg/injection, schedule: Q01DX001 (ip), vehicle: carboxymethylcellulose (CMC)
[12] = dose: 200.0 mg/kg/injection, schedule: Q01DX001 (ip), vehicle: carboxymethylcellulose (CMC)
[13] = dose: 400.0 mg/kg/injection, schedule: Q01DX001 (ip), vehicle: carboxymethylcellulose (CMC)
[14] = dose: 100.0 mg/kg/injection, schedule: Q01DX009 (ip), vehicle: saline with Tween-80
[15] = dose: 200.0 mg/kg/injection, schedule: Q01DX009 (ip), vehicle: saline with Tween-80
[16] = dose: 50.0 mg/kg/injection, schedule: Q01DX001 (ip), vehicle: carboxymethylcellulose (CMC)

Measured: T/C

COc1ccc(C2=CC(c3ccc(OC)c(OC)c3)c3c(c4ccccc4oc3=O)O2)cc1OC (centres undefined)
inactive: dose: 25.0 mg/kg/injection, schedule: Q01DX009 (ip), vehicle: water 93 % of control | dose: 50.0 mg/kg/injection, schedule: Q01DX009 (ip), vehicle: water 98 % of control | dose: 100.0 mg/kg/injection, schedule: Q01DX009 (ip), vehicle: water 93 % of control | dose: 200.0 mg/kg/injection, schedule: Q01DX009 (ip), vehicle: water 94 % of control | dose: 400.0 mg/kg/injection, schedule: Q01DX009 (ip), vehicle: water 92 % of control

c1ccc(-c2c(-c3ccc4c(c3)CCCC4)c(-c3ccccc3)c3c(c2-c2ccccc2)-c2cccc4cccc-3c24)cc1
inactive: [1] 87 % of control | [2] 87 % of control | [3] 100 % of control

S=P(Nc1ccc(Cl)cc1Cl)(Nc1ccc(Cl)cc1Cl)c1ccccc1
inactive: [4] 102 % of control | dose: 200.0 mg/kg/injection, schedule: Q01DX009 (ip), vehicle: Klucel (hydroxypropylcellulose) (HPC) 100 % of control | dose: 400.0 mg/kg/injection, schedule: Q01DX009 (ip), vehicle: Klucel (hydroxypropylcellulose) (HPC) 110 % of control

O=C(O)c1cc(Cl)ccc1O
inactive: dose: 100.0 mg/kg/injection, schedule: Q04DX002 (ip), vehicle: other 100 % of control | dose: 200.0 mg/kg/injection, schedule: Q04DX002 (ip), vehicle: other 103 % of control

C/C(=C/C1CC(=O)OC1=O)CC(C)(C)C (centres undefined)
inactive: dose: 222.0 mg/kg/injection, schedule: Q01DX Z (ip), vehicle: methylcellulose (MC) 108 % of control | dose: 333.0 mg/kg/injection, schedule: Q01DX Z (ip), vehicle: methylcellulose (MC) 92 % of control

CCOc1cc(S(N)(=O)=O)ccc1Cl
inactive: [1] 89 % of control | [2] 93 % of control | [3] 96 % of control

Oc1cc(Cl)ccc1Cl
inactive: dose: 75.0 mg/kg/injection, schedule: Q01DX009 (ip), vehicle: saline 90 % of control | [5] 95 % of control | dose: 150.0 mg/kg/injection, schedule: Q01DX009 (ip), vehicle: saline 101 % of control | [6] 100 % of control | dose: 300.0 mg/kg/injection, schedule: Q01DX009 (ip), vehicle: saline 96 % of control | [7] 98 % of control

CN1C(=O)CSC1=S
inactive: dose: 25.0 mg/kg/injection, schedule: Q01DX009 (ip), vehicle: Klucel (hydroxypropylcellulose) (HPC) 90 % of control | dose: 50.0 mg/kg/injection, schedule: Q01DX009 (ip), vehicle: Klucel (hydroxypropylcellulose) (HPC) 87 % of control | [4] 93 % of control

ON=C1c2ccccc2-c2ccccc21
inactive: [8] 96 % of control | [9] 93 % of control | [10] 104 % of control

NCc1cc(=O)[nH]c(=O)[nH]1
inactive: [5] 104 % of control | [7] 89 % of control

c1cc(B2OCCNCCO2)ccc1B1OCCNCCO1
inactive: dose: 100.0 mg/kg/injection, schedule: Q04DX003 (ip), vehicle: Klucel (hydroxypropylcellulose) (HPC) 103 % of control | dose: 200.0 mg/kg/injection, schedule: Q04DX003 (ip), vehicle: Klucel (hydroxypropylcellulose) (HPC) 98 % of control | dose: 400.0 mg/kg/injection, schedule: Q04DX003 (ip), vehicle: Klucel (hydroxypropylcellulose) (HPC) 104 % of control

Clc1ccc([S][Pb]([c]2ccccc2)([c]2ccccc2)[c]2ccccc2)cc1
inactive: dose: 100.0 mg/kg/injection, schedule: Q04DX002 (ip), vehicle: gum acacia 88 % of control | dose: 200.0 mg/kg/injection, schedule: Q04DX002 (ip), vehicle: gum acacia 91 % of control

CCC1SC(CC)(CC(C)C)C(=O)NC1=O (centres undefined)
inactive: [11] 102 % of control | [12] 94 % of control | [13] 94 % of control

O=C(O)CCCCCCC(=O)c1ccccc1
inactive: [1] 98 % of control | [2] 95 % of control | [3] 98 % of control

C(/C=C/c1ccccc1)=C1c2ccccc2-c2ccccc21
inactive: [14] 88 % of control | dose: 100.0 mg/kg/injection, schedule: Q04DX003 (ip), vehicle: saline with Tween-80 90 % of control | [15] 98 % of control | dose: 200.0 mg/kg/injection, schedule: Q04DX003 (ip), vehicle: saline with Tween-80 93 % of control | dose: 400.0 mg/kg/injection, schedule: Q01DX009 (ip), vehicle: saline with Tween-80 96 % of control | dose: 400.0 mg/kg/injection, schedule: Q04DX003 (ip), vehicle: saline with Tween-80 95 % of control

CN(CC#CCOc1ccc(Cl)cc1)c1ccccc1
inactive: dose: 12.5 mg/kg/injection, schedule: Q01DX001 (ip), vehicle: carboxymethylcellulose (CMC) 96 % of control | dose: 12.5 mg/kg/injection, schedule: Q01DX009 (ip), vehicle: carboxymethylcellulose (CMC) 97 % of control and 90 % of control | dose: 12.5 mg/kg/injection, schedule: Q04DX002 (ip), vehicle: carboxymethylcellulose (CMC) 93 % of control and 106 % of control | dose: 12.5 mg/kg/injection, schedule: Q04DX003 (ip), vehicle: carboxymethylcellulose (CMC) 103 % of control | dose: 25.0 mg/kg/injection, schedule: Q01DX001 (ip), vehicle: carboxymethylcellulose (CMC) 96 % of control | dose: 25.0 mg/kg/injection, schedule: Q01DX009 (ip), vehicle: carboxymethylcellulose (CMC) 93 % of control | dose: 25.0 mg/kg/injection, schedule: Q04DX002 (ip), vehicle: carboxymethylcellulose (CMC) 93 % of control and 110 % of control | dose: 25.0 mg/kg/injection, schedule: Q04DX003 (ip), vehicle: carboxymethylcellulose (CMC) 102 % of control | [16] 96 % of control | dose: 50.0 mg/kg/injection, schedule: Q01DX009 (ip), vehicle: carboxymethylcellulose (CMC) 93 % of control and 90 % of control | dose: 50.0 mg/kg/injection, schedule: Q04DX002 (ip), vehicle: carboxymethylcellulose (CMC) 92 % of control and 94 % of control | dose: 50.0 mg/kg/injection, schedule: Q04DX003 (ip), vehicle: carboxymethylcellulose (CMC) 97 % of control | dose: 100.0 mg/kg/injection, schedule: Q04DX002 (ip), vehicle: carboxymethylcellulose (CMC) 95 % of control | dose: 200.0 mg/kg/injection, schedule: Q04DX002 (ip), vehicle: carboxymethylcellulose (CMC) 88 % of control | dose: 400.0 mg/kg/injection, schedule: Q04DX002 (ip), vehicle: carboxymethylcellulose (CMC) 88 % of control

CN(C)CC/C=C1\c2ccccc2CSc2ccccc21
inactive: dose: 6.25 mg/kg/injection, schedule: Q01DX009 (ip), vehicle: saline 95 % of control | dose: 12.5 mg/kg/injection, schedule: Q01DX009 (ip), vehicle: saline 108 % of control | dose: 25.0 mg/kg/injection, schedule: Q01DX009 (ip), vehicle: saline 109 % of control | dose: 25.0 mg/kg/injection, schedule: Q04DX003 (ip), vehicle: saline 100 % of control | dose: 50.0 mg/kg/injection, schedule: Q01DX009 (ip), vehicle: saline 101 % of control | dose: 50.0 mg/kg/injection, schedule: Q04DX003 (ip), vehicle: saline 89 % of control | [5] 97 % of control

CC(C)O[Si](C)(C)CCl
inactive: [16] 98 % of control | [11] 86 % of control | [12] 90 % of control | [13] 92 % of control

CN=C1c2ccccc2C2(c3ccccc3)C1N2C (centres undefined)
inactive: [14] 95 % of control | dose: 100.0 mg/kg/injection, schedule: Q04DX003 (ip), vehicle: saline sonified 121 % of control | [15] 94 % of control | dose: 200.0 mg/kg/injection, schedule: Q04DX003 (ip), vehicle: saline sonified 108 % of control | dose: 400.0 mg/kg/injection, schedule: Q04DX003 (ip), vehicle: saline sonified 101 % of control

Cc1nnc2c3ccccc3ccn12
inactive: dose: 50.0 mg/kg/injection, schedule: Q01DX001 (ip), vehicle: saline 101 % of control | dose: 100.0 mg/kg/injection, schedule: Q01DX001 (ip), vehicle: saline 101 % of control | dose: 200.0 mg/kg/injection, schedule: Q01DX001 (ip), vehicle: saline 103 % of control

CCSc1cc(C(=O)O)cc([N+](=O)[O-])c1
inactive: [5] 104 % of control | [6] 93 % of control | [7] 94 % of control

Cc1ccc([N+](=O)[O-])cc1NC(=O)N(CC(O)c1ccccc1)C1CCCCC1 (centres undefined)
inactive: [8] 90 % of control | [9] 97 % of control | [10] 95 % of control
